In patent US12486239B2, “Benzotriazole compound, light absorber, and resin composition” (MITSUI CHEMICALS, INC., priority 2019, dated 2025):

Key:
Type in all cases: physicochemical
[1] = Maximum absorption wavelength and gram absorption coefficient, toluene solution 0.01 g/L (first embodiment); conditions: optical path length 10 mm
Procedure: The maximum absorption wavelength of the benzotriazole compound of the first embodiment is measured using a spectrophotometer (for example, Shimadzu Spectrophotometer UV-1600 manufactured by Shimadzu Corporation) at an optical path length of 10 mm using a toluene solution having a concentration of 0.01 g/L.
In Examples according to the first embodiment, the maximum absorption wavelength and the gram absorption coefficient of the benzotriazole compound were measured using a Shimadzu Spectrophotometer UV-1600 manufactured by Shimadzu Corporation at an optical path length of 10 mm using a toluene solution having a concentration of 0.01 g/L.

[2] = Heat resistance: TG5% decomposition temperature; conditions: nitrogen atmosphere, heating rate 10° C./min; for T-5% by mass: Table 2; for Decomposition temperature (Tg-5% by mass): Table 6
Procedure: In each Example and Comparative Example, the decomposition temperature was measured by the following method.
Using a thermal analyzer Rigaku ThermoPlus Evo TG8120, the TG5% decomposition temperature (T-5% by mass) was measured under a nitrogen atmosphere at a heating rate of 10° C./min and a temperature range of from room temperature to 500° C.
The higher the T-5% by mass, the higher the heat resistance.
The decomposition temperature of the benzotriazole compound obtained in each Example and Comparative Example was measured by the following method.

[3] = Solubility to various organic solvents; conditions: room temperature; for Solubility to various organic solvents: PGMEA / Solubility to various organic solvents: Ethyl acetate / Solubility to various organic solvents: MEK / Solubility to various organic solvents: MMA / Solubility to various organic solvents: Toluene: Table 1
Procedure: As Comparative Example 1, the solubility of TINUVIN326 (manufactured by BASF Japan Ltd.) represented by the following Formula (TI) was measured by the following method.
(§1) To 0.5 g of the benzotriazole compound, the various organic solvents shown in Table 1 were added such that the total mass was about 10 g, the mixture was irradiated with ultrasonic waves for about 30 minutes, and thereafter stirred at room temperature for 2 hours to prepare a dispersion of about 10% by mass.
The dispersion was filtered through a membrane filter (0.2 μm), and the obtained residue was dried in a dryer at 60° C. for 1 hour, and then the mass of the residue was measured.
The solubility of the benzotriazole compound to the solvent was expressed by the following formula. Solubility (% by mass)=(W0−W1)/W0
W0 is the mass of the benzotriazole compound before the treatment, and W1 is the mass of the residue after drying (that is, the dissolution residue of the benzotriazole compound). In a case in which no residue remained on the filter, the solubility was determined as 5% by mass or more.
The solubility of the benzotriazole compound obtained in each Example and Comparative Example was measured by the following method.
as §1, with “Table 6” for “Table 1”

Row | gram absorption coefficient [1] | maximum absorption [1] [nm] | T-5% by mass [2] [°C] | Solubility to various organic solvents: PGMEA ([3]; PGMEA) | Solubility to various organic solvents: Ethyl acetate ([3]; ethyl acetate) | Solubility to various organic solvents: MEK ([3]; methyl ethyl ketone) | Solubility to various organic solvents: MMA ([3]; methyl methacrylate) | Solubility to various organic solvents: Toluene ([3]; toluene) | Decomposition temperature (Tg-5% by mass) [2] [°C] | Decomposition temperature (Tg-5% by mass) ([2]; listed as Comparative Example 1C) | Solubility: PGMEA ([3]; Table 6, PGMEA) [% by mass] | Solubility: EA ([3]; Table 6, ethyl acetate) [% by mass] | Solubility: MEK ([3]; Table 6, methyl ethyl ketone) [% by mass] | Solubility: MMA ([3]; Table 6, methyl methacrylate) [% by mass] | Solubility: Toluene ([3]; Table 6, toluene) | SMILES
1 | 6.1×10^4 g/mL·cm | 355 | – | – | – | – | – | – | – | – | – | – | – | – | – | CCCCCCC(=O)N(c1ccccc1)c1ccc(-n2nc3ccc(Cl)cc3n2)c(O)c1 [Compound (22)]
2 | 9.37×10^4 g/mL·cm | 360.0 | – | – | – | – | – | – | – | – | – | – | – | – | – | O=C(Nc1ccc(-n2nc3ccc(Cl)cc3n2)c(O)c1)c1ccccc1 [Compound (61)]
3 | 6.9×10^4 g/mL·cm | 371.0 | 359.4 | 5 or more % by mass | 5 % by mass | 5 % by mass | 5 or more % by mass | 2 % by mass | – | – | – | – | – | – | – | CCCCCCC(=O)Nc1ccc(-n2nc3ccc(Sc4ccc(C(C)(C)C)cc4)cc3n2)c(O)c1 [Compound (55)]
4 | 7.02×10^4 g/mL·cm | 371.5 | 366.1 | 1 % by mass | 1.5 % by mass | 3 % by mass | 3 % by mass | 1 % by mass | – | – | – | – | – | – | – | CCC(C)(C)C(=O)Nc1ccc(-n2nc3ccc(Sc4ccc(C(C)(C)C)cc4)cc3n2)c(O)c1 [Compound (101)]
5 | 7.10×10^4 g/mL·cm | 371.0 | 359.7 | 0.3 % by mass | 0.3 % by mass | 1 % by mass | 0.5 % by mass | 0.3 % by mass | – | – | – | – | – | – | – | CCCCCCCCSc1ccc2nn(-c3ccc(NC(=O)CCCCCC)cc3O)nc2c1 [Compound (54)]
6 | 8.48×10^4 g/mL·cm | 359.0 | 335.7 | – | – | – | – | – | – | – | – | – | – | – | – | O=C(Nc1ccc(-n2nc3ccc(Cl)cc3n2)c(O)c1)C1CCCCC1 [Compound (103)]
7 | 8.40×10^4 g/mL·cm | 359.0 | 309.1 | 5 or more % by mass | 5 or more % by mass | 5 or more % by mass | 5 or more % by mass | 2 % by mass | – | – | – | – | – | – | – | CCC(C)(C)C(=O)Nc1ccc(-n2nc3ccc(Cl)cc3n2)c(O)c1 [Compound (59)]
8 | 1.07×10^5 g/mL·cm | 372.5 | 230.1 | – | – | – | – | – | – | – | – | – | – | – | – | CCN(CC)C(=O)Nc1ccc(-n2nc3ccc(Cl)cc3n2)c(O)c1 [Compound (81)]
9 | 6.90×10^4 g/mL·cm | 371.0 | 313.1 | – | – | – | – | – | – | – | – | – | – | – | – | CC(C)(C)c1ccc(CSc2ccc3nn(-c4ccc(NC(=O)C5CCCCC5)cc4O)nc3c2)cc1 [Compound (104)]
10 | 5.19×10^4 g/mL·cm | 347.0 | – | – | – | – | – | – | – | – | – | – | – | – | – | CC(=O)Nc1ccc(-n2nc3ccc(Cl)cc3n2)c(O)c1 [Compound (102)]
11 | 7.47×10^4 g/mL·cm | 370.0 | 368.0 | 2 or more % by mass | 3 or more % by mass | 10 or more % by mass | 4 or more % by mass | 1 or more % by mass | – | – | – | – | – | – | – | CCCCC(CC)C(=O)Nc1ccc(-n2nc3ccc(Sc4ccccc4)cc3n2)c(O)c1 (stereo not drawn) [Compound (112)]
12 | – | – | 219.2 | 1 % by mass | 3 % by mass | 3 % by mass | 5 % by mass | 5 or more % by mass | 219.2 | lower than that of Examples | 1 | 3 | 3 | 5 | 5≤ % by mass | Cc1cc(-n2nc3ccc(Cl)cc3n2)c(O)c(C(C)(C)C)c1 [TINUVIN326, 2-(5-chloro-2-benzotriazol)-6-tert-butyl-p-cresol, reference compound]
13 | 6.98×10^4 g/mL·cm | 371.5 | 365.5 | 1 or more % by mass | 1 or more % by mass | 2.5 or more % by mass | 2 or more % by mass | 0.5 or more % by mass | – | – | – | – | – | – | – | CCCCC(CC)C(=O)Nc1ccc(-n2nc3ccc(Sc4ccc(C)cc4)cc3n2)c(O)c1 (stereo not drawn) [Compound (113)]
14 | 7.9×10^4 g/mL·cm | 359.0 | 323.5 | 1 % by mass | 1 % by mass | 1 % by mass | 1 % by mass | 0.5 % by mass | – | – | – | – | – | – | – | CCCCCCC(=O)Nc1ccc(-n2nc3ccc(Cl)cc3n2)c(O)c1 [Compound (53)]
15 | 9.77×10^4 g/mL·cm | 387 | – | – | – | – | – | – | – | – | – | – | – | – | – | CCCCCNc1ccc(-n2nc3ccc(Cl)cc3n2)c(O)c1 [Compound (3)]
16 | 1.04×10^5 g/mL·cm | 378.5 | 252.6 | 3 % by mass | 5 % by mass | 10 % by mass | 4 % by mass | 1 % by mass | – | – | – | – | – | – | – | CCNc1cc(O)c(-n2nc3ccc(OC)cc3n2)cc1C [Compound (111)]
17 | 7.28×10^4 g/mL·cm | 365.5 | – | – | – | – | – | – | – | – | – | – | – | – | – | O=C1CCc2cc(-n3nc4ccc(Cl)cc4n3)c(O)cc2N1 [Compound (105)]
18 | 7.48×10^4 g/mL·cm | 359.0 | 312.7 | 0.8 % by mass | 0.8 % by mass | 2 % by mass | 1.2 % by mass | 0.2 % by mass | – | – | – | – | – | – | – | CCCCC(CC)C(=O)Nc1ccc(-n2nc3ccc(Cl)cc3n2)c(O)c1 (stereo not drawn) [Compound (56)]
19 | 9.76×10^4 g/mL·cm | 389.5 | – | – | – | – | – | – | – | – | – | – | – | – | – | Oc1cc(NC2CCCCC2)ccc1-n1nc2ccc(Cl)cc2n1 [Compound (4)]
20 | 6.61×10^4 g/mL·cm | 371.5 | 374.7 | 2 % by mass | 3 % by mass | 5 or more % by mass | 5 or more % by mass | 2 % by mass | – | – | – | – | – | – | – | CCCCC(CC)C(=O)Nc1ccc(-n2nc3ccc(Sc4ccc(C(C)(C)C)cc4)cc3n2)c(O)c1 (stereo not drawn) [Compound (58)]
